Experimental data taken from patent US20200352921A1, “ARYL-SULFONAMIDE AND ARYL-SULFONE DERIVATIVES AS TRPML MODULATORS” (CalyGene Biotechnolgy, Inc., priority 2017, published 2020).
pIC50: −log10 of the molar value. Where two headings read alike, the source gives them in different places.

What was measured:
Assay type in all cases: cell-based
[1] = test system: cultured parietal cells; test: Gastric acid secretion assay (histamine-stimulated VAC formation)
Protocol: Acid secretion was measured in cultured parietal cells upon histamine stimulation. Briefly, after mucosal digestion of isolated glands, supernatants were pelleted by centrifugation at 200×g, washed three times with HEPES-MEM, and re-suspended in Medium A. Approximately 70% of the total gastric cells suspended in Medium A were parietal cells. The cells were plated onto Matrigel-coated 18-mm round coverslips or 35-mm dishes and incubated at 37° C. In cultured parietal cells, upon secretagogue stimulation, apical canalicular membranes are engulfed into the cell to form multiple actin-wrapped vacuoles known as vacuolar apical compartments (VACs), which remain separate from the basolateral membrane and free TVs in the cytosol (Nakada, S. L., Crothers, J. M., Jr., Machen, T. E., and Forte, J. G. (2012). Apical vacuole formation by gastric parietal cells in primary culture: effect of low extracellular Ca2+. American journal of physiology Cell physiology 303, C1301-1311.). […] In resting WT cells, small (diameter <2 μm) VACs were observed occasionally with a total surface area <10 μm^2. VACs formed within 10-20 min after bath application of histamine and then fused together to generate one or a few large VACs (up to 8 μm in diameter; total VAC surface area >50 μm^2). The apical membrane vacuole surface area during resting and stimulated states was measured for all VACs that were visible in multiple (3-6) Z-cross sections. Data were analyzed in ImageJ (NIH).
In this acid secretion assay, histamine-stimulated VAC formation was abolished by ML-S4 at 10 μM (Zhang X, Cheng X, Yu L, Yang J, Calvo R, Patnaik S, Hu X, Gao Q, Yang M, Lawas M, Delling M, Marugan J, Ferrer M, and Xu H. 2016, PMID: 27357649).

[2] = target: T1, ML1 channel (Homo sapiens, UniProt Q9GZU1); test: Endolysosomal electrophysiology (whole-endolysosome patch-clamp)
T1 construct: host or cells: unnamed cells treated with vacuolin-1; isolated enlarged endolysosomes
Protocol: Endolysosomal electrophysiology was performed in isolated endolysosomes using a modified patch-clamp method. Briefly, cells were treated with 1 μM vacuolin-1 for 2-5 h to increase the size of endosomes and lysosomes. Whole-endolysosome recordings were performed on isolated enlarged LELs. The bath (internal/cytoplasmic) solution contained 140 mM K-gluconate, 4 mM NaCl, 1 mM EGTA, 2 mM Na2-ATP, 2 mM MgCl2, 0.39 mM CaCl2), 0.2 mM GTP and 10 mM HEPES (pH adjusted with KOH to 7.2; free [Ca^2+]i˜100 nM based on the Maxchelator software (http://maxchelator.stanford.edu/)). The pipette (luminal) solution consisted of a ‘Low pH Tyrode's solution with 145 mM NaCl, 5 mM KCl, 2 mM CaCl2), 1 mM MgCl2, 10 mM HEPES, 10 mM MES and 10 mM glucose (pH 4.6). All bath solutions were applied via a perfusion system to achieve a complete solution exchange within a few seconds. Data were collected using an Axopatch 2A patch clamp amplifier, Digidata 1440 and pClamp 10.0 software (Axon Instruments). Whole-cell currents were digitized at 10 kHz and filtered at 2 kHz. All experiments were conducted at room temperature (21-23° C.), and all recordings were analyzed with pClamp 10.0 and Origin 8.0 (OriginLab, Northampton, Mass., USA). ML1 channel activity was induced by synthetic agonists ML-SA1 or […], and inhibited by ML-S13 or ML-S14.
In this electrophysiology assays, compounds were tested with both basal and agonist-induced ML1 currents. Examples B11, B11a, B11b, B40, B41, B44, B5, B47, B48, B49, B50, B51, B54, B57, B58, B59, B62, B63, B68, B69, B71, B72, B75, B75, and B76 were tested with basal ML1 currents. […] In particular, Examples B11, B11a and B11b inhibited basal ML1 currents with IC50<100 nM. Examples B11, B11a and B11b are shown below. Examples B1-4, B2-1, B-2-2, B2-3, B2-4, 3-4, B5, B6-2, B9-4, B-10, B-10-4, B11, B12, B13, B14, B15, B16, B18, B19, B20, B21, B22, B23, B25, B26, B27, B28, B29, B30, B32, B34, B40, B41, B44, B45, B46, B47, B48, B49, B50, B51, B52, B59, and B66 were tested in ML1 currents activated by ML1 agonists (ML-SA1 or ML-SA5). […] In particular, B11 inhibited the ML-SA1-activated currents with IC50<1,000 nM. Example B11 is shown below.

[3] = target: T2, ML1 (UniProt Q99J21); test: Lysosomal Ca2+ imaging in Tet-On HEK-GCaMP3-ML1 cells; settings: zero Ca2+ solution, ML-SA1 trigger, read-out: inhibition of ML-SA1-induced lysosomal Ca2+ release, IC50
T2 construct: fused on or other part: GCaMP3 (genetically encoded Ca2+ indicator) fused to ML1 as the reporter handle; in the published construct it sits at the N-terminus
Protocol: GCaMP3-ML1 expression was induced in Tet-On HEK-GCaMP3-ML1 cells 20-24 h prior to experiments using […] doxycycline. GCaMP3-ML1 fluorescence was monitored at an excitation wavelength of 470 nm (F470) using an EasyRatio Pro system (PTI). Cells were bathed in Tyrode's solution containing 145 mM NaCl, 5 mM KCl, 2 mM CaCl2), 1 mM MgCl2, 10 mM Glucose, and 20 mM Hepes (pH 7.4). Lysosomal Ca^2+ release was measured in a zero Ca^2+ solution containing 145 mM NaCl, 5 mM KCl, 3 mM MgCl2, 10 mM glucose, 1 mM EGTA, and 20 mM HEPES (pH 7.4). Ca^2+ concentration in the nominally free Ca^2+ solution is estimated to be 1-10 μM. With 1 mM EGTA, the free Ca^2+ concentration is estimated to be <10 nM based on the Maxchelator software (http://maxchelator.stanford.edu/). Experiments were carried out 0.5 to 6 hrs after plating. ML1-mediated lysosomal Ca^2+ release was triggered by synthetic agonists ML-SA1, and inhibited by ML-S13 and aforementioned testing compounds.

[4] = basal ML1 currents, isolated enlarged endolysosomes, read-out: inhibition of basal ML1 currents, IC50

T1 sequence (Q9GZU1 whole entry): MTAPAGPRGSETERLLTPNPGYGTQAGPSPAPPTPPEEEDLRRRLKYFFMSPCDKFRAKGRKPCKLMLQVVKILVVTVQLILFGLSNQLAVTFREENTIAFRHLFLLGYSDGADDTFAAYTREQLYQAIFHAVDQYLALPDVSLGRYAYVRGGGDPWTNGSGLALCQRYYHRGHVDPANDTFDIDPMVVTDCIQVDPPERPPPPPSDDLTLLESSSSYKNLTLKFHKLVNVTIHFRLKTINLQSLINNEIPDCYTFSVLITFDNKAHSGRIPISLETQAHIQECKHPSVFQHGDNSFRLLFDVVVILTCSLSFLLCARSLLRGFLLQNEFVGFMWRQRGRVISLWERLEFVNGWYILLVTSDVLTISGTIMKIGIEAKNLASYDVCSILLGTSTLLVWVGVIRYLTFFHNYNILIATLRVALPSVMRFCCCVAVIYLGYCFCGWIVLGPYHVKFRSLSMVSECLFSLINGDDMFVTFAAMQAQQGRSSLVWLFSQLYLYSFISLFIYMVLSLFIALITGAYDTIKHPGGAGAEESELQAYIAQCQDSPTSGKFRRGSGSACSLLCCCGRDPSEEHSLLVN

Compound	histamine-induced VAC formation ([1]; at 0.5 μM)	histamine-induced VAC formation ([1]; at 2 μM)	pIC50 [2, 4]	pIC50 ([2]; currents activated by ML1 agonist ML-SA1, read-out: inhibition of ML-SA1-activated ML1 currents, IC50)	pIC50 [3]
Cc1ccc(S(=O)(=O)N2c3cc(F)ccc3CCC2CCc2ccc(Cl)cc2F)cc1 (stereo not drawn) [Example B11, 2-(4-Chloro-2-fluorophenethyl)-7-fluoro-1-tosyl-1,2,3,4-tetrahydroquinoline]	significantly inhibited	abolished	> 7.00	> 6.00	
Cc1ccc(S(=O)(=O)N2c3cc(F)ccc3CC[C@@H]2CCc2ccc(Cl)cc2F)cc1 [Example B11a]			> 7.00		
Cc1ccc(S(=O)(=O)N2c3cc(F)ccc3CC[C@H]2CCc2ccc(Cl)cc2F)cc1 [Example B11b]	significantly inhibited	abolished	> 7.00		> 6.00
